The values that follow are results of earlier work, collected in PMC8637765 (RSC Chemical Biology, 2021).

This series has as its system cancer cells.

Take `O=C(Cc1ccccc1)Nc1nnc(CCSCCc2nnc(NC(=O)Cc3ccccc3)s2)s1` [BPTES, bis-2-(5-phenylacetamido-1,3,4-thiadiazol-2-yl)ethyl sulfide]: the “Growth inhibition at the cellular level” value is listed as “partial growth inhibition”.

On to `O=C(Cc1cccc(OC(F)(F)F)c1)Nc1ccc(CCCCc2nnc(NC(=O)Cc3ccccn3)s2)nn1` [CB-839], for which the “Growth inhibition at the cellular level” value is recorded as “partial growth inhibition”.
